In US6245817A, “NPY5 receptor antagonists and methods for using same” (Bayer Corporation, priority 1999, dated 2001):

Columns and labels:
Human NPY1 Receptor = target: T1, Human NPY1 Receptor (Homo sapiens, UniProt P25929); experiment: Human NPY1 Receptor Binding Assay; conditions: SK-N-MC cells, [125I]PYY; read-out: hNPY1 IC50
T1 sequence (P25929 1-384): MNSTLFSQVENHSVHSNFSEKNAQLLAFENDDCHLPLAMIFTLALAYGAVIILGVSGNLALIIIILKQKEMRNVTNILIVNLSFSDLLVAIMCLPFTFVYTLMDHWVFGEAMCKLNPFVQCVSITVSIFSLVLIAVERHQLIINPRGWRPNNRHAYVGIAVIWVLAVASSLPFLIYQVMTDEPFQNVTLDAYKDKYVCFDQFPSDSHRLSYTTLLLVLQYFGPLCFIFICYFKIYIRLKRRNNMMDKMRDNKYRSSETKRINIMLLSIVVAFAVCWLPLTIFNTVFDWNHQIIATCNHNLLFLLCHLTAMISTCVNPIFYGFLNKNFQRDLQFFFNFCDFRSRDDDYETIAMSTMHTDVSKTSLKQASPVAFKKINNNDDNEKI

Human NPY5 Receptor = target: T2, Human NPY5 Receptor (Homo sapiens, UniProt Q15761); experiment: Human NPY5 Receptor Binding Assay; conditions: [125I]PYY; read-out: hNPY5 IC50
T2 sequence (Q15761 1-445): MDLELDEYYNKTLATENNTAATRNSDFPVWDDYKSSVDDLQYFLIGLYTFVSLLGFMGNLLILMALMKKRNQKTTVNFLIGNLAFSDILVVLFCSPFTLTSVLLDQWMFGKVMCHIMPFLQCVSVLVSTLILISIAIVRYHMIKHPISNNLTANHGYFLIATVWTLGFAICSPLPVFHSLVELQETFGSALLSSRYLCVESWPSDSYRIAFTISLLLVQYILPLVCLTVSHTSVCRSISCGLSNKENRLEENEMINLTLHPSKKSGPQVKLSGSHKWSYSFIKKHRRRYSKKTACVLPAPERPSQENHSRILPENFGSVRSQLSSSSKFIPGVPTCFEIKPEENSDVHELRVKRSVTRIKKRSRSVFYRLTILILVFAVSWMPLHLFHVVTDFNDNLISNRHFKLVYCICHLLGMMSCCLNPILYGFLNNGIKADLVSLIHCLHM

Human NPY2 receptor = target: T3, Human NPY2 receptor (Homo sapiens, UniProt P49146); experiment: Human NPY2 Receptor Binding Assay; conditions: [125I]PYY; read-out: hPPY2 IC50
T3 sequence (P49146 1-381): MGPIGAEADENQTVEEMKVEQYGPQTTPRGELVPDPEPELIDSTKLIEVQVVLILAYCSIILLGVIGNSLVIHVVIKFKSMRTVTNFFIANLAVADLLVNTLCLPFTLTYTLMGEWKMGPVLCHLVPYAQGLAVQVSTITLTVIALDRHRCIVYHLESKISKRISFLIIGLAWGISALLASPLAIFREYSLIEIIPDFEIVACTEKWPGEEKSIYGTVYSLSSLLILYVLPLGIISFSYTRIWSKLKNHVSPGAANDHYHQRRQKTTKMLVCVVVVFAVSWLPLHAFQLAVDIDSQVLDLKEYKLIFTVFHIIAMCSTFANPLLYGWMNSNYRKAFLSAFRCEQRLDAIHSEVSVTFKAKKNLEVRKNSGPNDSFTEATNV

Rat NPY5 Receptor = target: T4, Rat NPY5 Receptor (Rattus norvegicus, UniProt Q63634); experiment: Rat NPY5 Receptor Binding Assay; conditions: [125I]PYY; read-out: rNPY5 IC50
T4 sequence (Q63634 1-445): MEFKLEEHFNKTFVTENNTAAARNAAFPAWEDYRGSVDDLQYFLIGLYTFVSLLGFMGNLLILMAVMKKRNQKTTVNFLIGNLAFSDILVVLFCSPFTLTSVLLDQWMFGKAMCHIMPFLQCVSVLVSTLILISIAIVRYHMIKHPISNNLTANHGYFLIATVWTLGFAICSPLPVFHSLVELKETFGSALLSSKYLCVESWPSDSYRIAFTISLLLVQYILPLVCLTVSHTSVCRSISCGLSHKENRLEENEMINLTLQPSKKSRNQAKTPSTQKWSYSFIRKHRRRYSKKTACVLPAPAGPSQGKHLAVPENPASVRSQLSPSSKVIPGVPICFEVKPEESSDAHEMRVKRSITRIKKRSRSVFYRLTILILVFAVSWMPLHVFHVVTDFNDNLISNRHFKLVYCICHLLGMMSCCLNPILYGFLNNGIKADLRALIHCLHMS

Human NPY4/PP1 receptor = Human NPY4/PP1 receptor (Homo sapiens, UniProt P50391); experiment: Human NPY4/PP1 Receptor Binding Assay; conditions: [125I]human PP; read-out: hNPY4 IC50
Sequence of Human NPY4/PP1 receptor (P50391 whole entry): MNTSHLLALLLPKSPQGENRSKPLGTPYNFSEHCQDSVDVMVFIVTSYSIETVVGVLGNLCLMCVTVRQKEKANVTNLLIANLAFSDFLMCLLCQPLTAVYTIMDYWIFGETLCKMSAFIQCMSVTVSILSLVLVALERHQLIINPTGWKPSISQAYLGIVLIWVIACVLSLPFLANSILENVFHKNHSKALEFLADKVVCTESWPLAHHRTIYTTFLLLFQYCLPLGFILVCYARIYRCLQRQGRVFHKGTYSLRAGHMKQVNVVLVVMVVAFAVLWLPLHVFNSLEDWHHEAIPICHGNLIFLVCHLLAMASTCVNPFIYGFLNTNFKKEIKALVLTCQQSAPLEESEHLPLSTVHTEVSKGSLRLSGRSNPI

Row | Structure (SMILES) | IC50 (Human NPY1 Receptor) [µM] | IC50 (Human NPY5 Receptor) [µM] | IC50 (Human NPY2 receptor) [µM] | IC50 (Rat NPY5 Receptor) [µM] | IC50 (Human NPY4/PP1 receptor) [µM]
1 | Cn1ccnc1SCC(=O)Nc1ccc(Cl)cc1 [Compound 139, N-(4-Chloro-phenyl)-2-(1-methyl-1H-imidazoI-2-ylsulfanyl)-acetamide, reference compound] | > 5 | > 10 | > 5 | > 10 | > 5
2 | Cn1c(Cn2cc(C(F)(F)F)ccc2=O)nnc1SCC(=O)Nc1ccc(Cl)cc1 [Compound 175, N-(4-Chloro-phenyl)-2-[4-methyl-5-(2-oxo-5-trifluoromethyl-2H-pyridin-1-ylmethyl)-4H-[1,2,4]triazol-3-ylsulfanyl]-acetamide, reference compound] | > 5 | 7 | > 5 |  | > 5
3 | COC(Cn1c(SCC(=O)Nc2ccc(Cl)cc2)nnc1-c1ccc(Cl)cc1)OC [Compound 161, N-(4-Chloro-phenyl)-2-[5-(4-chloro-phenyl)-4-(2,2-dimethoxy-ethyl)-4H-[1,2,4]triazol-3-ylsulfanyl]-ecetamide, reference compound] | > 5 | > 10 |  | > 10 | > 5
4 | CSc1sc(-c2nnc(SCC(=O)Nc3ccc(Cl)cc3)n2C)c2c1C=CCC2 [Compound 159, N-(4-Chloro-phenyl)-2-[4-methyl-5-(3-methylsulfanyl-6,7-dihydro-benzo[c]thiophen-1-yl)-4H-[1,2,4]triazol-3-ylsulfanyl]-acetamide, reference compound] | > 5 | > 10 |  | > 10 | > 5
5 | Cn1cnnc1SCC(=O)Nc1ccc(F)cc1 [Compound 170, N-(4-Fluoro-phenyl)-2-(4-methyl-4H-[1,2,4]triazol-3-ylsulfanyl)-acetamide, reference compound] | > 5 | > 10 |  | > 10 | > 5
6 | COC(Cn1c(SCC(=O)Nc2ccc(Cl)cc2)nnc1-c1ccccc1)OC [Compound 162, N-(4-Chloro-phenyl)-2-(4-(2,2-dimethoxy-ethyl)-5-phenyl-4H-[1,2,4]triazol-3-ylsulfanyl]-acetamide, reference compound] | > 5 | > 10 |  | > 10 | > 5
7 | Cc1ccc(NC(=O)CSc2nncn2C)cc1 [Compound 174, 2-(4-Methyl-4H-[1,2,4]triazol-3-ylsulfanyl)-N-p-tolyl-acetamide, reference compound] | > 5 | > 10 |  | > 10 | > 5
8 | Cc1cc(-c2nnc(SCC(=O)Nc3ccccc3)n2C)no1 [Compound 150, 2-[4-Methyl-5-(5-methyl-isoxazol-3-yl)-4H-[1,2,4]triazol-3-ylsulfanyl]-N-phenyl-acetamide, reference compound] | > 5 | > 10 |  | > 10 | > 5
9 | CC(C)c1ccc(NC(=O)CSc2nnc(CSc3cccs3)n2C)cc1 [Compound 153, reference compound] | > 5 | > 10 |  | > 10 | > 5
10 | CCC(C)c1ccc(NC(=O)CSc2nnnn2C)cc1 (centres unmarked) [Compound 171, N-(4-sec-Butyl-phenyl)-2-(1-methyl-1H-tetrazol-5-ylsulfanyl)-acetamide, reference compound] | > 5 | 0.553 |  | 0.525 | > 5
11 | Cn1c(Cc2ccsc2)nnc1SCC(=O)Nc1ccc(Cl)cc1 [Compound 168, N-(4-Chloro-phenyl)-2-(4-methyl-5-thiophen-3-ylmethyl-4H-[1,2,4]triazol-3-ylsulfanyl)-acetamide, reference compound] | > 5 | > 10 |  | > 10 | > 5
12 | Cn1c(CC2Sc3ccccc3NC2=O)nnc1SCC(=O)Nc1ccc(Cl)cc1 (centres unmarked) [Compound 167, reference compound] | > 5 | > 10 |  | > 10 | > 5
13 | CCC(C)c1ccc(NC(=O)CSc2nncn2C)cc1 (centres unmarked) [Compound 172, reference compound] | > 5 | 2.3 |  | 2 | > 5
14 | Cn1cnnc1SCC(=O)Nc1ccc(C2CCCCC2)cc1 [Compound 173, N-(4-Cyclohexyl-phenyl)-2-(4-methyl-4H-[1,2,4]triazol-3-ylsulfanyl)-acetamide, reference compound] | > 5 | 0.08 |  | 0.073 | > 5
15 | COC(Cn1c(SCC(=O)Nc2ccc(C(C)C)cc2)nnc1-c1ccc(Cl)cc1)OC [Compound 166, 2-[5-(4-Chloro-phenyl)-4-(2,2-dimethoxy-ethyl)-4H-[1,2,4]triazol-3-ylsulfanyl]-N-(4-isopropyl-phenyl)-acetamide, reference compound] | > 5 | > 10 |  | > 10 | > 5
16 | CC(C)c1ccc(NC(=O)CSc2nnc(Cn3cc(C(F)(F)F)ccc3=O)n2C)cc1 [Compound 176, N-(4-isopropyl-phenyl)-2-[4-methyl-5-(2-oxo-5-trifluoromethyl-2H-yridin-1-ylmethyl)-4H-[1,2,4]triazol-3-ylsulfanyl]-acetamide, reference compound] | > 5 | 3 | > 5 |  | > 5
17 | Cc1cc(-c2nc(C)c(-c3nnc(SCC(=O)Nc4ccc(Cl)cc4)n3C)s2)no1 [Compound 169, reference compound] | > 5 | > 10 |  | > 10 | > 5
18 | O=C(CSc1ncc[nH]1)Nc1ccc(C(=O)c2ccccc2)cc1 [Compound 4, N-(4-Benzoyl-phenyl)-2-(1H-imidazol-2-ylsultanyl)-acetamide] | > 5 |  | > 5 | 0.36 | > 5
19 | CC(C)c1ccc(NC(=O)CSc2nc3cc(C(F)(F)F)ccc3n2C(C)C)cc1 [Compound 165, N-(4-Isopropyl-phenyl)-2-(1-isopropyl-5-trifluoromethyl-1H-benzolmidazol-2-ylsulfanyl)-acetamide, reference compound] | > 5 | > 10 |  | > 10 | > 5
20 | COC(Cn1c(SCC(=O)Nc2ccc(C(C)C)cc2)nnc1-c1ccccc1)OC [Compound 163, 2-[4-(2,2-Dimethoxy-ethyl)-5-phenyl-4H-[1,2,4]triazol-3-ylsulfanyl]-N-(4-isopmpyl-phenyl)-acetamide, reference compound] | > 5 | > 10 |  | > 10 | > 5
21 | Cn1cnnc1SCC(=O)Nc1ccc(C(C)(C)C)cc1 [Compound 164, N-(4-tert-Butyl-phenyl)-2-(4-methyl-4H-[1,2,4]triazol-3-ylsulfanyl)-acetamide, reference compound] | > 5 | 1.6 |  | 1.7 | > 5
22 | CC(C)c1ccc(NC(=O)CSc2nnc(Cc3ccsc3)n2C)cc1 [Compound 158, N-(4-isopropyl-phenyl)-2-(4-methyl-5-thiophen-3-ylmethyl-4H-[1,2,4]triazol-3-ylsulfanyl)-acetamide, reference compound] | > 5 | > 10 |  | > 10 | > 5
